Data taken from US12618095B2, “Medium for Bacillus cereus group detection” (SHIMADZU DIAGNOSTICS CORPORATION, priority 2020, dated 2026).

Assays:
Assay in all cases: Test Example 10: agar medium with aztreonam or ceftazidime
E. amnigenus = conditions: 22 hours; for Number of colonies: ATCC33072
B. thuringiensis = conditions: NBRC101235, 22 hours
B. cereus = conditions: 22 hours
E. coli = format: cell-based; conditions: 22 hours; for Number of colonies: ATCC8739

SMILES: C[C@H]1[C@H](NC(=O)/C(=N\OC(C)(C)C(=O)O)c2csc(N)n2)C(=O)N1S(=O)(=O)O [aztreonam]
- Number of colonies (E. amnigenus; Aztreonam 0.05 mg, 10^1 cfu/mL): −
- Number of colonies (E. amnigenus; Aztreonam 0.05 mg, 10^2 cfu/mL): −
- Number of colonies (E. amnigenus; Aztreonam 0.05 mg, 10^3 cfu/mL): −
- Number of colonies (E. amnigenus; Aztreonam 0.05 mg, 10^4 cfu/mL): −
- Number of colonies (E. amnigenus; Aztreonam 0.05 mg, 10^5 cfu/mL): 2
- Number of colonies (E. amnigenus; Aztreonam 0.5 mg, 10^1 cfu/mL): −
- Number of colonies (E. amnigenus; Aztreonam 0.5 mg, 10^2 cfu/mL): −
- Number of colonies (E. amnigenus; Aztreonam 0.5 mg, 10^3 cfu/mL): −
- Number of colonies (E. amnigenus; Aztreonam 0.5 mg, 10^4 cfu/mL): −
- Number of colonies (E. amnigenus; Aztreonam 0.5 mg, 10^5 cfu/mL): −
- Number of colonies (E. amnigenus; Aztreonam 5 mg, 10^1 cfu/mL): −
- Number of colonies (E. amnigenus; Aztreonam 5 mg, 10^2 cfu/mL): −
- Number of colonies (E. amnigenus; Aztreonam 5 mg, 10^3 cfu/mL): −
- Number of colonies (E. amnigenus; Aztreonam 5 mg, 10^4 cfu/mL): −
- Number of colonies (E. amnigenus; Aztreonam 5 mg, 10^5 cfu/mL): −
- formation of a white colony (E. amnigenus; added to TSA-BC, 30° C.): suppressed
- Number of colonies (B. thuringiensis; Aztreonam 0.05 mg, 10^1 cfu/mL): 3
- Number of colonies (B. thuringiensis; Aztreonam 0.05 mg, 10^2 cfu/mL): 16
- Number of colonies (B. thuringiensis; Aztreonam 0.05 mg, 10^3 cfu/mL): +
- Number of colonies (B. thuringiensis; Aztreonam 0.05 mg, 10^4 cfu/mL): +
- Number of colonies (B. thuringiensis; Aztreonam 0.05 mg, 10^5 cfu/mL): +
- Number of colonies (B. thuringiensis; Aztreonam 0.5 mg, 10^1 cfu/mL): 1
- Number of colonies (B. thuringiensis; Aztreonam 0.5 mg, 10^2 cfu/mL): 13
- Number of colonies (B. thuringiensis; Aztreonam 0.5 mg, 10^3 cfu/mL): +
- Number of colonies (B. thuringiensis; Aztreonam 0.5 mg, 10^4 cfu/mL): +
- Number of colonies (B. thuringiensis; Aztreonam 0.5 mg, 10^5 cfu/mL): +
- Number of colonies (B. thuringiensis; Aztreonam 5 mg, 10^1 cfu/mL): 2
- Number of colonies (B. thuringiensis; Aztreonam 5 mg, 10^2 cfu/mL): 16
- Number of colonies (B. thuringiensis; Aztreonam 5 mg, 10^3 cfu/mL): +
- Number of colonies (B. thuringiensis; Aztreonam 5 mg, 10^4 cfu/mL): +
- Number of colonies (B. thuringiensis; Aztreonam 5 mg, 10^5 cfu/mL): +
- Number of colonies (B. cereus; ATCC11778, Aztreonam 0.05 mg, 10^1 cfu/mL): 1
- Number of colonies (B. cereus; ATCC11778, Aztreonam 0.05 mg, 10^2 cfu/mL): 13
- Number of colonies (B. cereus; ATCC11778, Aztreonam 0.05 mg, 10^3 cfu/mL): +
- Number of colonies (B. cereus; ATCC11778, Aztreonam 0.05 mg, 10^4 cfu/mL): +
- Number of colonies (B. cereus; ATCC11778, Aztreonam 0.05 mg, 10^5 cfu/mL): +
- Number of colonies (B. cereus; ATCC11778, Aztreonam 0.5 mg, 10^1 cfu/mL): 1
- Number of colonies (B. cereus; ATCC11778, Aztreonam 0.5 mg, 10^2 cfu/mL): 12
- Number of colonies (B. cereus; ATCC11778, Aztreonam 0.5 mg, 10^3 cfu/mL): +
- Number of colonies (B. cereus; ATCC11778, Aztreonam 0.5 mg, 10^4 cfu/mL): +
- Number of colonies (B. cereus; ATCC11778, Aztreonam 0.5 mg, 10^5 cfu/mL): +
- Number of colonies (B. cereus; ATCC11778, Aztreonam 5 mg, 10^1 cfu/mL): 2
- Number of colonies (B. cereus; ATCC11778, Aztreonam 5 mg, 10^2 cfu/mL): 17
- Number of colonies (B. cereus; ATCC11778, Aztreonam 5 mg, 10^3 cfu/mL): +
- Number of colonies (B. cereus; ATCC11778, Aztreonam 5 mg, 10^4 cfu/mL): +
- Number of colonies (B. cereus; ATCC11778, Aztreonam 5 mg, 10^5 cfu/mL): +
- Number of colonies (B. cereus; ATCC19637, Aztreonam 0.05 mg, 10^1 cfu/mL): 3
- Number of colonies (B. cereus; ATCC19637, Aztreonam 0.05 mg, 10^2 cfu/mL): 2
- Number of colonies (B. cereus; ATCC19637, Aztreonam 0.05 mg, 10^3 cfu/mL): +
- Number of colonies (B. cereus; ATCC19637, Aztreonam 0.05 mg, 10^4 cfu/mL): +
- Number of colonies (B. cereus; ATCC19637, Aztreonam 0.05 mg, 10^5 cfu/mL): +
- Number of colonies (B. cereus; ATCC19637, Aztreonam 0.5 mg, 10^1 cfu/mL): 1
- Number of colonies (B. cereus; ATCC19637, Aztreonam 0.5 mg, 10^2 cfu/mL): 10
- Number of colonies (B. cereus; ATCC19637, Aztreonam 0.5 mg, 10^3 cfu/mL): +
- Number of colonies (B. cereus; ATCC19637, Aztreonam 0.5 mg, 10^4 cfu/mL): +
- Number of colonies (B. cereus; ATCC19637, Aztreonam 0.5 mg, 10^5 cfu/mL): +
- Number of colonies (B. cereus; ATCC19637, Aztreonam 5 mg, 10^1 cfu/mL): 1
- Number of colonies (B. cereus; ATCC19637, Aztreonam 5 mg, 10^2 cfu/mL): 5
- Number of colonies (B. cereus; ATCC19637, Aztreonam 5 mg, 10^3 cfu/mL): +
- Number of colonies (B. cereus; ATCC19637, Aztreonam 5 mg, 10^4 cfu/mL): +
- Number of colonies (B. cereus; ATCC19637, Aztreonam 5 mg, 10^5 cfu/mL): +
- Number of colonies (E. coli; Aztreonam 0.05 mg, 10^1 cfu/mL): −
- Number of colonies (E. coli; Aztreonam 0.05 mg, 10^2 cfu/mL): −
- Number of colonies (E. coli; Aztreonam 0.05 mg, 10^3 cfu/mL): −
- Number of colonies (E. coli; Aztreonam 0.05 mg, 10^4 cfu/mL): −
- Number of colonies (E. coli; Aztreonam 0.05 mg, 10^5 cfu/mL): −
- Number of colonies (E. coli; Aztreonam 0.5 mg, 10^1 cfu/mL): −
- Number of colonies (E. coli; Aztreonam 0.5 mg, 10^2 cfu/mL): −
- Number of colonies (E. coli; Aztreonam 0.5 mg, 10^3 cfu/mL): −
- Number of colonies (E. coli; Aztreonam 0.5 mg, 10^4 cfu/mL): −
- Number of colonies (E. coli; Aztreonam 0.5 mg, 10^5 cfu/mL): −
- Number of colonies (E. coli; Aztreonam 5 mg, 10^1 cfu/mL): −
- Number of colonies (E. coli; Aztreonam 5 mg, 10^2 cfu/mL): −
- Number of colonies (E. coli; Aztreonam 5 mg, 10^3 cfu/mL): −
- Number of colonies (E. coli; Aztreonam 5 mg, 10^4 cfu/mL): −
- Number of colonies (E. coli; Aztreonam 5 mg, 10^5 cfu/mL): −
- formation of a white colony (E. coli; added to TSA-BC, 30° C.): suppressed
